# Measurements published in PubChem BioAssay AID1919017 (Molecular Pharmacology Branch, DTP, NCI, 2023).
# Tested on: SW1271 complex spheroids with HUVEC/MSC, growth, % test/control
# Assay: Anticancer human tumor SW1271 cell line growth inhibition [AhR];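 further: spheroids exposed to agents for 7 days before readout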
# Settings: for IC50: curve of first compound; for viability, T/C: stronger effect = lower value
# Text: Multicellular complex tumor spheroid response to aryl hydrocarbon receptor antagonists in combination with a variety of drugs and investigational agents in selected tumor cell lines
# The current study was undertaken to assess response to aryl hydrocarbon receptor antagonists in combination with standard-of-care drugs and investigational agents in solid tumor complex spheroid models. Complex spheroids include a stromal component modeled by human endothelial cells (HUVEC) and fibroblasts modeled by human mesenchymal stem cells (MSCs). The concentration ranges selected for each drug and investigational agent were based upon clinically achievable concentrations if the clinical Cmax of the agent was known.
# Compounds. The drugs and investigational agents: BAY 2416964 (NSC825713), GNF351 (NSC835774), CH-223191 (NSC835775), CPI-455 (NSC825282), aza-TdCyd (NSC777586), decitabine (NSC127716), belinostat (NSC758774), entinostat (NSC756642), pevonedistat (NSC761192), tazemetostat (NSC777109), talazoparib (NSC765396), olaparib (NSC753686), selinexor (NSC780203), nedisertib (M3814, NSC802822), bortezomib (NSC756655), venetoclax (NSC766270), doxorubicin (NSC123127), elimusertib (BAY189344, NSC800525), ceralasertib (AZD6738, NSC777638), TAK-243 (NSC785004), alisertib (NSC759677), etoposide (NSC141540), topotecan (NSC609699), eribulin (NSC707389), gemcitabine (NSC613327), carboplatin (NSC241240), cisplatin (NSC119875), and SN-38 (NSC673596) were obtained from the National Cancer Institute (NCI) Developmental Therapeutics Program Chemical Repository (32). The FDA-approved anticancer drug set is available from the Developmental Therapeutics Program at https://dtp.cancer.gov/organization/dscb/obtaining/available plates.htm. […] The stock solutions were prepared in dimethyl sulfoxide (DMSO, Sigma-Aldrich, St. Louis, MO, cat. D2650), except for the platinum compounds which were prepared in saline (Quality Biological, Gaithersburg, MD, cat. 114-055-101), at 800-fold the tested concentration and stored at -70 degrees C prior to their use. All drugs and investigational agents were tested over a range starting from a high concentration at or near the clinical Cmax and decreasing in half-log increments. If the clinical Cmax for an agent had not been determined, the highest concentration tested was 10 microM (Table 1).
# Cell Culture. All cells were maintained in an incubator at 37 degrees C and 5% CO2 with 95% humidity. The PDC lines were cultured according to standard operating procedures established by the NCI PDMR (https://pdmr.cancer.gov). Briefly, all PDCs were thawed and cultured in Matrigel-coated flasks prepared with a working solution of 1X Ham's F-12 nutrient mix, without supplementation (Invitrogen, Waltham, MA, cat. 11765054), 100 U/mL penicillin-streptomycin (Invitrogen, cat. 15140122), and 2.5% Matrigel (Corning Inc., Corning, NY, cat. 354248) for the first three passages. All PDCs were cultured in complete DMEM/F-12 media containing advanced DMEM/F-12 (Invitrogen, cat. 12634028), 4.9% defined fetal bovine serum, heat inactivated (HyClone Laboratories Inc., Logan, UT, cat. SH30070.03HI), 389 ng/mL hydrocortisone (Sigma-Aldrich, cat. H4001), 9.7 ng/mL human EGF recombinant protein (Invitrogen, cat. PHG0313), 23.4 microg/mL adenine (Sigma-Aldrich, cat. A2786), 97.3 U/mL penicillin-streptomycin (Invitrogen, cat. 15140122), 1.9 mM L-glutamine (Invitrogen, cat. 25030081), and 9.7 microM Y-27632 dihydrochloride (Tocris Bioscience, Bristol, United Kingdom, cat. 1254). The PDCs were cultured in complete DMEM/F12 media without 10 microM Y-27632 dihydrochloride for at least two passages prior to the screen. The established cell lines NCI-H1341 and […] were cultured in DMEM/F-12, HEPES (Invitrogen, cat. 11330032), 5% defined fetal bovine serum (HyClone Laboratories Inc., cat. SH30070.03), ITS premix universal culture supplement [insulin (5 microg/mL), transferrin (5 microg/mL), and selenious acid (5 ng/mL)] […]
# [1] = second compound 0.1 µM, first compound 0.0316 µM
# [2] = second compound 0.1 µM, first compound 0.1 µM
# [3] = second compound 0.1 µM, first compound 0.316 µM
# [4] = second compound 0.1 µM, first compound 1 µM
# [5] = second compound 0.1 µM, first compound 3.16 µM
# [6] = second compound 0.1 µM, first compound 10 µM
# [7] = second compound 0.316 µM, first compound 0.0316 µM
# [8] = second compound 0.316 µM, first compound 0.1 µM
# [9] = second compound 0.316 µM, first compound 0.316 µM
# [10] = second compound 0.316 µM, first compound 1 µM
# [11] = second compound 0.316 µM, first compound 3.16 µM
# [12] = second compound 0.316 µM, first compound 10 µM
# [13] = second compound 1 µM, first compound 0.0316 µM
# [14] = second compound 1 µM, first compound 0.1 µM
# [15] = second compound 1 µM, first compound 0.316 µM
# [16] = second compound 1 µM, first compound 1 µM
# [17] = second compound 1 µM, first compound 3.16 µM
# [18] = second compound 1 µM, first compound 10 µM
# [19] = second compound 3.16 µM, first compound 0.0316 µM
# [20] = second compound 3.16 µM, first compound 0.1 µM
# [21] = second compound 3.16 µM, first compound 0.316 µM
# [22] = second compound 3.16 µM, first compound 1 µM
# [23] = second compound 3.16 µM, first compound 3.16 µM
# [24] = second compound 3.16 µM, first compound 10 µM
# [25] = second compound 10 µM, first compound 0.0316 µM
# [26] = second compound 10 µM, first compound 0.1 µM
# [27] = second compound 10 µM, first compound 0.316 µM
# [28] = second compound 10 µM, first compound 1 µM
# [29] = second compound 10 µM, first compound 3.16 µM
# [30] = second compound 10 µM, first compound 10 µM
structure (smiles),measurement,setting,value
CC(C)CC(NC(=O)C(Cc1ccccc1)NC(=O)c1cnccn1)B(O)O (stereo not given) + CC(CO)NC(=O)c1cc(-c2ccc(Cl)cc2)nn(-c2cnn(C)c2)c1=O,IC50,second compound 0.1 µM,4.95 nM
same,IC50,second compound 0.316 µM,5.08 nM
same,IC50,second compound 1 µM,5.33 nM
same,IC50,second compound 3.16 µM,4.77 nM
same,IC50,second compound 10 µM,4.41 nM
same,"viability, T/C","second compound 0.1 µM, first compound 0.000949 µM",116%
same,"viability, T/C","second compound 0.1 µM, first compound 0.003 µM",86.6%
same,"viability, T/C","second compound 0.1 µM, first compound 0.00949 µM",2.31%
same,"viability, T/C","second compound 0.1 µM, first compound 0.03 µM",0.27%
same,"viability, T/C","second compound 0.1 µM, first compound 0.0949 µM",0.34%
same,"viability, T/C","second compound 0.1 µM, first compound 0.3 µM",0.41%
same,"viability, T/C","second compound 0.316 µM, first compound 0.000949 µM",92.5%
same,"viability, T/C","second compound 0.316 µM, first compound 0.003 µM",88.3%
same,"viability, T/C","second compound 0.316 µM, first compound 0.00949 µM",4.62%
same,"viability, T/C","second compound 0.316 µM, first compound 0.03 µM",0.41%
same,"viability, T/C","second compound 0.316 µM, first compound 0.0949 µM",0.43%
same,"viability, T/C","second compound 0.316 µM, first compound 0.3 µM",0.4%
same,"viability, T/C","second compound 1 µM, first compound 0.000949 µM",99.9%
same,"viability, T/C","second compound 1 µM, first compound 0.003 µM",97.5%
same,"viability, T/C","second compound 1 µM, first compound 0.00949 µM",2.34%
same,"viability, T/C","second compound 1 µM, first compound 0.03 µM",0.34%
same,"viability, T/C","second compound 1 µM, first compound 0.0949 µM",0.31%
same,"viability, T/C","second compound 1 µM, first compound 0.3 µM",0.55%
same,"viability, T/C","second compound 3.16 µM, first compound 0.000949 µM",66.9%
same,"viability, T/C","second compound 3.16 µM, first compound 0.003 µM",96.6%
same,"viability, T/C","second compound 3.16 µM, first compound 0.00949 µM",3.1%
same,"viability, T/C","second compound 3.16 µM, first compound 0.03 µM",0.44%
same,"viability, T/C","second compound 3.16 µM, first compound 0.0949 µM",0.3%
same,"viability, T/C","second compound 3.16 µM, first compound 0.3 µM",0.38%
same,"viability, T/C","second compound 10 µM, first compound 0.000949 µM",73.6%
same,"viability, T/C","second compound 10 µM, first compound 0.003 µM",75.2%
same,"viability, T/C","second compound 10 µM, first compound 0.00949 µM",1.45%
same,"viability, T/C","second compound 10 µM, first compound 0.03 µM",0.5%
same,"viability, T/C","second compound 10 µM, first compound 0.0949 µM",0.51%
same,"viability, T/C","second compound 10 µM, first compound 0.3 µM",0.39%
Nc1ccccc1NC(=O)c1ccc(CNC(=O)OCc2cccnc2)cc1 + CC(CO)NC(=O)c1cc(-c2ccc(Cl)cc2)nn(-c2cnn(C)c2)c1=O,IC50,second compound 0.1 µM,1040 nM
same,IC50,second compound 0.316 µM,838 nM
same,IC50,second compound 1 µM,676 nM
same,IC50,second compound 3.16 µM,1000 nM
same,IC50,second compound 10 µM,294 nM
same,"viability, T/C",[1],92.2%
same,"viability, T/C",[2],89.6%
same,"viability, T/C",[3],78.5%
same,"viability, T/C",[4],43%
same,"viability, T/C",[5],34.8%
same,"viability, T/C",[6],10.7%
same,"viability, T/C",[7],103%
same,"viability, T/C",[8],85.2%
same,"viability, T/C",[9],67.3%
same,"viability, T/C",[10],41.4%
same,"viability, T/C",[11],35%
same,"viability, T/C",[12],9.29%
same,"viability, T/C",[13],87.7%
same,"viability, T/C",[14],82%
same,"viability, T/C",[15],60.4%
same,"viability, T/C",[16],40.8%
same,"viability, T/C",[17],30.2%
same,"viability, T/C",[18],10.4%
same,"viability, T/C",[19],65.2%
same,"viability, T/C",[20],64.7%
same,"viability, T/C",[21],65.5%
same,"viability, T/C",[22],44.9%
same,"viability, T/C",[23],34.5%
same,"viability, T/C",[24],11%
same,"viability, T/C",[25],70.2%
same,"viability, T/C",[26],63%
same,"viability, T/C",[27],43.5%
same,"viability, T/C",[28],43.6%
same,"viability, T/C",[29],19%
same,"viability, T/C",[30],11.4%
O=C(C=Cc1cccc(S(=O)(=O)Nc2ccccc2)c1)NO + CC(CO)NC(=O)c1cc(-c2ccc(Cl)cc2)nn(-c2cnn(C)c2)c1=O,IC50,second compound 0.1 µM,1200 nM
same,IC50,second compound 0.316 µM,768 nM
same,IC50,second compound 1 µM,1500 nM
same,IC50,second compound 3.16 µM,914 nM
same,IC50,second compound 10 µM,793 nM
same,"viability, T/C",[1],98.4%
same,"viability, T/C",[2],92.5%
same,"viability, T/C",[3],75.4%
same,"viability, T/C",[4],57.9%
same,"viability, T/C",[5],24.7%
same,"viability, T/C",[6],9.02%
same,"viability, T/C",[7],92.4%
same,"viability, T/C",[8],87.6%
same,"viability, T/C",[9],71.1%
same,"viability, T/C",[10],45.5%
same,"viability, T/C",[11],16.6%
same,"viability, T/C",[12],11.7%
same,"viability, T/C",[13],85.9%
same,"viability, T/C",[14],80.8%
same,"viability, T/C",[15],75.5%
same,"viability, T/C",[16],63%
same,"viability, T/C",[17],28.4%
same,"viability, T/C",[18],9.03%
same,"viability, T/C",[19],85%
same,"viability, T/C",[20],73.1%
same,"viability, T/C",[21],65.2%
same,"viability, T/C",[22],51.4%
same,"viability, T/C",[23],27%
same,"viability, T/C",[24],10.7%
same,"viability, T/C",[25],90.2%
same,"viability, T/C",[26],76.2%
same,"viability, T/C",[27],54.4%
same,"viability, T/C",[28],57.1%
same,"viability, T/C",[29],26.7%
same,"viability, T/C",[30],9.34%
